pIC50: −log10 of the molar value.
How the values were obtained:
PGE2 secretion = assay: Inhibition of PGE2 secretion in LPS activated mouse macrophages (RAW 264.7); type: cell-based; conditions: RAW264.7, LPS activated RAW 264.7 cells, same experimental setup, known anti-inflammatory drugs
Procedure: The assay reproduces in vitro the true enzymatic activity, the test compounds, up to 10 μM, were preincubated for 5 minutes with purified COX-2, then the natural substrate AA was added and the reaction was allowed to proceed for 2 minutes. HCl was used to stop the enzyme catalysis and saturated stannous chloride was added to stabilize the PGH2 product into PGF2α.
RAW 264.7 macrophages, a mouse cell line (ATCC # TIB 71), were grown in Dulbecco's modified Eagle's medium (DMEM) with 4 mM L-glutamine adjusted to contain 1.5 g/L sodium bicarbonate, 4.5 g/L glucose, and 10% heat inactivated fetal bovine serum. Cells were grown in tissue culture flasks and seeded at appropriate density into 24 wells tissue culture plates. 0.5×10^6 Raw cells in one milliliter were stimulated with 2 μg/ml Lipopolysaccharide E. coli 055:B5 (DIFCO Laboratories). The mouse macrophages were pre-treated for one hour with controls or 10 μM of dexanabinol and its analogs, unless indicated otherwise, and later on activated with LPS.

[1] = tested on: carrageenan induced paw edema; assay: Carrageenan induced paw edema; type: in vivo, mice; conditions: 3 hours after carrageenan
[2] = tested on: ConA injured liver (ALT release); assay: ALT release from ConA injured liver; type: in vivo, mice; conditions: PRS-211,092 5 mg/kg, FK-506 1 mg/kg
Procedure: (§1) Each experimental group contained at least twenty BALB/c inbred female mice (25 g average weight, Harlan, Israel). The negative control group was composed of mice injected with saline instead of ConA. The injection of ConA (Sigma) was done i.v. at the base of the tail at the dose of 15 mg/kg in saline. The treatments were injected i.v. at 5 mg/kg, 30 minutes before ConA injection, unless indicated otherwise. Compounds were dissolved in cremophor:ethanol, further diluted with saline before injection, and vehicle only was included as an internal control. Analysis was performed at predetermined time points following ConA injection.
Impact of treatment was monitored at three levels. First, blood samples (200-400 μl) were collected at predetermined time points after ConA injection, using retro-orbital puncture. After short centrifugation (5000 rpm for 2 min) serum was recovered and stored at −80° C. until further use for determination of cytokines concentrations by ELISA and aminotransferase release from the liver as a marker for liver injury.
Alanine aminotransferase (ALT) is an enzyme found mainly in the liver and it is measured to determine whether the liver is damaged or diseased in a variety of human conditions, especially hepatitis and cirrhosis. The level of its release into the bloodstream linearly correlates with the severity of the liver injury and thus it can be used both for diagnosis purposes and to monitor the efficiency of a treatment. The time course of plasma ALT release after ConA injection is known from the literature to peak at eight hours. […] We used this assay to preliminarily assess the temporal window of PRS-211,092 efficiency and the compound was administered either 30 or 60 minutes after induction of injury. […] FK-506 was used as positive control and at the dose of 1 mg/kg, it reduced ALT concentrations by 92%, 93% and 86% when injected at the three previously described time points. Thus, the test compound has an important beneficial impact on liver injury as assessed by the reduction of ALT, a robust marker of the liver injury. […]

SAA-3 gene expression = assay: SAA-3 liver gene expression (acute phase response), ConA model; type: in vivo, mice; conditions: 1 mg/kg, on average at both time points of four and eight hours
Procedure: (§2) II reverse transcriptase (Life Technologies).
as §1
(§3) The acute phase response is an innate body defense seen during acute inflammation, infection and trauma, which involves the altered production of certain blood proteins termed acute phase proteins (APPs). As previously stated activated macrophages and other leukocytes release pro-inflammatory cytokines such as TNF-α, IL-1 and IL-6. These cytokines in turn stimulate hepatocytes to synthesize and secrete acute phase proteins such as C-reactive protein (CRP), mannose-binding lectin (MBL), haptoglobin and serum amyloid A (SAA). Measurement of acute phase protein level is used to monitor the severity of the innate response and thus predict the prognosis of the disease. […]

[3] = tested on: haptoglobin gene expression; assay: Haptoglobin liver gene expression (acute phase response), ConA model; type: in vivo, mice; conditions: 1 mg/kg, on average at both time points of four and eight hours
Procedure: as §2, §1, §3

recombinant COX-2 = recombinant COX-2 (Homo sapiens, UniProt P35354); assay: In vitro enzymatic activity of recombinant COX-2 (PGF2α EIA); type: biochemical
recombinant COX-2, sequence (P35354 18-604): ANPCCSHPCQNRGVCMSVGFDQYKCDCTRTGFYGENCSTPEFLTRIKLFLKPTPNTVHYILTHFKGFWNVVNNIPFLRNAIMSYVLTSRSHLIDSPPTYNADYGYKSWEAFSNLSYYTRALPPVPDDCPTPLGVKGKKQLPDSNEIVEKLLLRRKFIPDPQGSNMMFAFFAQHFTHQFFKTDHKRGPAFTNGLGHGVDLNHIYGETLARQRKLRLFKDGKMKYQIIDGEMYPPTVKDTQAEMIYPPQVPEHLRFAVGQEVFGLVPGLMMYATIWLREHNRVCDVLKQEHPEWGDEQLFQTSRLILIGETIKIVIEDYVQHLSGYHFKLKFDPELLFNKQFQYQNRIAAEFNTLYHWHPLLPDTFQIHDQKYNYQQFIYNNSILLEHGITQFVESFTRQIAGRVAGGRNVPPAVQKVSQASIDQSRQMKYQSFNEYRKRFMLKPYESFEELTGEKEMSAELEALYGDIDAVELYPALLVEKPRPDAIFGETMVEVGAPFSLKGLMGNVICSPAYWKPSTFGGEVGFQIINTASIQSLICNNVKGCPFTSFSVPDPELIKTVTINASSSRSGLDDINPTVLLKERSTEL

Compound	pIC50 (PGE2 secretion)	Reduction in paw thickness ([1]; 0.1 mg/kg i.p.) [%]	Reduction in paw thickness ([1]; 0.25 mg/kg i.p.) [%]	Reduction in paw thickness ([1]; 0.5 mg/kg i.p.) [%]	other results
Cc1ccc(-c2cc(C(F)(F)F)nn2-c2ccc(S(N)(=O)=O)cc2)cc1 [Celecoxib]	8.30	24	28	33	
C[C@@H]1C[C@H]2[C@@H]3CCC4=CC(=O)C=C[C@]4(C)[C@@]3(F)[C@@H](O)C[C@]2(C)[C@@]1(O)C(=O)CO [Dexamethasone]		26	31	33	
C=CC[C@@H]1/C=C(\C)C[C@H](C)C[C@H](OC)[C@H]2O[C@@](O)(C(=O)C(=O)N3CCCC[C@H]3C(=O)O[C@H](/C(C)=C/[C@@H]3CC[C@@H](O)[C@H](OC)C3)[C@H](C)[C@@H](O)CC1=O)[C@H](C)C[C@@H]2OC [FK-506]					Reduction of ALT concentrations ([2]; administered 30 minutes after induction of injury): 93%; Reduction of ALT concentrations ([2]; administered 30 minutes before ConA, 8 hours after ConA): 92%; Reduction of ALT concentrations ([2]; administered 60 minutes after induction of injury): 86%; Reduction in gene expression of SAA-3 (SAA-3 gene expression): 97%; Reduction in gene expression of haptoglobin [3]: 78%
CS(=O)(=O)Nc1ccc([N+](=O)[O-])cc1OC1CCCCC1 [NS-398]	7.00				
CS(=O)(=O)c1ccc(C2=C(c3ccccc3)C(=O)OC2)cc1 [Rofecoxib, reference compound]	7.00				Inhibition of COX-2 enzymatic activity (recombinant COX-2): strongly inhibited

Reference: patent US20050137251A1, “Dexanabinol and dexanabinol analogs regulate inflammation related genes” (priority 2002, published 2005)
